The values that follow come from patent publication US10233173B2, “Substituted 1,2,3-triazoles as NR2B-selective NMDA modulators” (JANSSEN PHARMACEUTICA NV, priority 2016, dated 2019).

The experiment concerns the target human GluN1/GluN2B NMDA receptors (Homo sapiens, UniProt Q05586+Q13224). Kind of experiment: Cell-based calcium flux (FLIPR) assay on cloned human NR1/NR2B ion channels expressed in mammalian cells. Particulars: standard assay; glutamate at ~EC80; FLIPR calcium flux. The method in brief: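 Calcium influx followed by FLIPR fluorescence after 5 min compound exposure and a further 5 min co-agonist challenge: 10 μM glycine with glutamate at ~EC80 (standard) or EC40 (HTS).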
(In general: Calcium flux is commonly read through the fluorescence of an indicator in the cells.)

human GluN1/GluN2B NMDA receptors, sequence (Q13224 27-1484, other chains not shown): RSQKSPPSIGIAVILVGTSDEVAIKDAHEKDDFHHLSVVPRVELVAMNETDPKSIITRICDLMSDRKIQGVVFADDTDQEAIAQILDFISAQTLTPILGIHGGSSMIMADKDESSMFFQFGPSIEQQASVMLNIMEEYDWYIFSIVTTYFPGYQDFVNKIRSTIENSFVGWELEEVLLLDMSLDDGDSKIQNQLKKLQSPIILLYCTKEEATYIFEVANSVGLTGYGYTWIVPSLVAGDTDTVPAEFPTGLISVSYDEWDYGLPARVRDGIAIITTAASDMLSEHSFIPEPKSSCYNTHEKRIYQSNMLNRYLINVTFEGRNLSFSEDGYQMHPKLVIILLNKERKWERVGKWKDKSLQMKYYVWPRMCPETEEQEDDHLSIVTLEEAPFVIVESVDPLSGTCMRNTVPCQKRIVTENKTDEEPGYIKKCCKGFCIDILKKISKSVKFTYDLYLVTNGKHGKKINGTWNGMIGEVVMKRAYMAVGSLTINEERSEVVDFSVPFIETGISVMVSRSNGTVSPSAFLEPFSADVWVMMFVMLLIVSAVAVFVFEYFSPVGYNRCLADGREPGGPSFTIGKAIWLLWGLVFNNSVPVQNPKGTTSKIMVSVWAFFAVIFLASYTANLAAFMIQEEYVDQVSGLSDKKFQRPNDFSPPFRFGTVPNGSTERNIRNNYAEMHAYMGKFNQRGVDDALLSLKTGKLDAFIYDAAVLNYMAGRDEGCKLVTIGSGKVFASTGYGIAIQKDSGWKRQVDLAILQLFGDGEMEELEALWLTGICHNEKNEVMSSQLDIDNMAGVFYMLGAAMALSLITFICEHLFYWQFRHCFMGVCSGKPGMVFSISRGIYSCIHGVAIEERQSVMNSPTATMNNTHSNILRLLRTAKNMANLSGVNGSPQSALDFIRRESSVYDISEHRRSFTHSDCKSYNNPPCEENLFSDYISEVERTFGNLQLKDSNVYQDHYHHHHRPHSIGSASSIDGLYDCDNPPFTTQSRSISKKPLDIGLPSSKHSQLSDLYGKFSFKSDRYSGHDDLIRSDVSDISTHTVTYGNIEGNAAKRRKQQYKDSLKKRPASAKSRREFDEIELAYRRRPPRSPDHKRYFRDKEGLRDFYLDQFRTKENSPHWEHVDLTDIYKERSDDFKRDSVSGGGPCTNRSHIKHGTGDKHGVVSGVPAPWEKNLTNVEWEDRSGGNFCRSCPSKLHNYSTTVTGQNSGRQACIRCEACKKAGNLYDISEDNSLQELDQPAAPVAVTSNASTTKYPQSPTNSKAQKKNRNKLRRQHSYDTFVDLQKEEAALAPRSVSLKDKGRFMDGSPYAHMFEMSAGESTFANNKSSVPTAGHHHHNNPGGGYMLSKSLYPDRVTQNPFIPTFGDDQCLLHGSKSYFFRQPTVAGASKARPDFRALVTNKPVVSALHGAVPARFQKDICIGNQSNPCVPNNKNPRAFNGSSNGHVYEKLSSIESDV

Broadly, the IC50 is the concentration needed to halve the response being measured. As for `COc1cnc(OCc2cn(-c3ccc(F)c(F)c3)nn2)nc1` [Example 599, 2-[[1-(3,4-Difluorophenyl)triazol-4-yl]methoxy]-5-methoxy-pyrimidine], the 50% inhibitory concentration (IC50) was found to be 0.034 µM.

With `Fc1ccc(-n2cc(COc3ncc(Cl)cn3)nn2)cc1F` [Example 600, 5-Chloro-2-[[1-(3,4-difluorophenyl)triazol-4-yl]methoxy]pyrimidine], the IC50 came out at 0.238 µM.

In the case of `Cc1cnc(OCc2cn(-c3ccc(F)c(F)c3)nn2)nc1` [Example 601, 2-[[1-(3,4-Difluorophenyl)triazol-4-yl]methoxy]-5-methyl-pyrimidine], the half-inhibitory concentration (IC50) was determined as 0.048 µM.

For the molecule `CCc1cnc(OCc2cn(-c3ccc(F)c(F)c3)nn2)nc1` [Example 602, 2-[[1-(3,4-Difluorophenyl)triazol-4-yl]methoxy]-5-ethyl-pyrimidine], the concentration for half-maximal inhibition (IC50) was 0.023 µM.

In the case of `Cc1cnc(OCc2cn(-c3cc(F)ccc3F)nn2)nc1` [Example 603, 2-[[1-(2,5-Difluorophenyl)triazol-4-yl]methoxy]-5-methyl-pyrimidine], the IC50 was 10.4 µM.

For `CC(C)(O)c1cnc(OCc2cn(-c3cc(F)ccc3F)nn2)nc1` [Example 604, 2-[2-[[1-(2,5-Difluorophenyl)triazol-4-yl]methoxy]pyrimidin-5-yl]propan-2-ol], the IC50 is 79.7 µM.

In the case of `Fc1cccc(-n2cc(COc3ncc(Cl)cn3)nn2)c1F` [Example 605, 5-Chloro-2-[[1-(2,3-difluorophenyl)triazol-4-yl]methoxy]pyrimidine], the half-maximal inhibitory concentration (IC50) came out at 4.36 µM.

`Fc1cnc(OCc2cn(-c3cccc(F)c3F)nn2)nc1` [Example 606, 2-[[1-(2,3-Difluorophenyl)triazol-4-yl]methoxy]-5-fluoro-pyrimidine]: the half-inhibitory concentration (IC50) stood at 17.5 µM.

Regarding `Fc1cccc(-n2cc(COc3ncccn3)nn2)c1F` [Example 607, 2-[[1-(2,3-Difluorophenyl)triazol-4-yl]methoxy]pyrimidine], the half-maximal inhibitory concentration (IC50) turned out to be 3.43 µM.

In the case of `CC(C)(O)c1cnc(OCc2cn(-c3cccc(F)c3F)nn2)nc1` [Example 608, 2-[2-[[1-(2,3-Difluorophenyl)triazol-4-yl]methoxy]pyrimidin-5-yl]propan-2-ol], the IC50 was > 10 µM.

For the molecule `Cc1cnc(OCc2cn(-c3cccc(Cl)c3F)nn2)nc1` [Example 610, 2-[[1-(3-Chloro-2-fluoro-phenyl)triazol-4-yl]methoxy]-5-methyl-pyrimidine], the IC50 was 1.03 µM.

As for `Fc1c(Cl)cccc1-n1cc(COc2ncccn2)nn1` [Example 611, 2-[[1-(3-Chloro-2-fluoro-phenyl)triazol-4-yl]methoxy]pyrimidine], the 50% inhibitory concentration (IC50) was > 10 µM.

`Fc1c(Cl)cccc1-n1cc(COc2ncc(Cl)cn2)nn1` [Example 612, 5-Chloro-2-[[1-(3-chloro-2-fluoro-phenyl)triazol-4-yl]methoxy]pyrimidine]: the IC50 was found to be 1.74 µM.

For `Cc1nc(OCc2cn(-c3cccc(Cl)c3F)nn2)ncc1F` [Example 613, 2-[[1-(3-Chloro-2-fluoro-phenyl)triazol-4-yl]methoxy]-5-fluoro-4-methyl-pyrimidine], the IC50 was 1.44 µM.

Consider `Fc1cnc(OCc2cn(-c3cccc(Cl)c3F)nn2)nc1` [Example 614, 2-[[1-(3-Chloro-2-fluoro-phenyl)triazol-4-yl]methoxy]-5-fluoro-pyrimidine], for which the concentration for half-maximal inhibition (IC50) was 4.03 µM.

Take `CC(C)(O)c1cnc(OCc2cn(-c3cccc(Cl)c3F)nn2)nc1` [Example 615, 2-[2-[[1-(3-Chloro-2-fluoro-phenyl)triazol-4-yl]methoxy]pyrimidin-5-yl]propan-2-ol]: the 50% inhibitory concentration (IC50) came out at 4.66 µM.

Turning to `OCc1cnc(OCc2cn(-c3ccc(F)c(Br)c3)nn2)nc1` [Example 616, [2-[[1-(3-Bromo-4-fluoro-phenyl)triazol-4-yl]methoxy]pyrimidin-5-yl]methanol], the IC50 came to 0.03 µM.

As for `OCc1ccnc(OCc2cn(-c3ccc(F)c(Br)c3)nn2)n1` [Example 617, [2-[[1-(3-Bromo-4-fluoro-phenyl)triazol-4-yl]methoxy]pyrimidin-4-yl]methanol], the IC50 was found to be 0.041 µM.
